Results taken from ChEMBL document CHEMBL3885881, “DrugMatrix”.

Organism: Rattus norvegicus
Experiment: DrugMatrix - Regimen: Daily Repeat
Assay type: toxicity, organism-based, Sprague-Dawley
Parameters: regimen Daily Repeat, gender Male, age 6-8 weeks
Details: in vivo, iv, vehicle 100 % SALINE; for ABSOLUTE BASOPHIL / ABSOLUTE EOSINOPHIL / ABSOLUTE LYMPHOCYTE / ABSOLUTE MONOCYTE / ABSOLUTE SEGMENTED NEUTROPHIL / BASOPHIL / EOSINOPHIL / ERYTHROCYTE COUNT / HEMATOCRIT / HEMOGLOBIN / LEUKOCYTE COUNT / LYMPHOCYTE / MEAN CORPUSCULAR HEMOGLOBIN / MEAN CORPUSCULAR HEMOGLOBIN CONCENTRATION / MEAN CORPUSCULAR VOLUME / MONOCYTE / NEUTROPHIL / NUCLEATED RED BLOOD CELLS / PLATELET COUNT: tissue Blood; for ALANINE AMINOTRANSFERASE / ALBUMIN / ALKALINE PHOSPHATASE / ASPARTATE AMINOTRANSFERASE / BLOOD UREA NITROGEN / CARBON DIOXIDE / CHLORIDE / CHOLESTEROL / CREATINE PHOSPHOKINASE / CREATININE / GLUCOSE / LACTATE DEHYDROGENASE / LIPASE / PHOSPHORUS / POTASSIUM / SODIUM / TOTAL BILIRUBIN / TOTAL PROTEIN / URIC ACID: tissue Plasma
[1] = 100 mg/kg, 72 h, dose level Low, time 3 day
[2] = 100 mg/kg, 120 h, dose level Low, time 5 day
[3] = 1000 mg/kg, 72 h, dose level High, time 3 day
[4] = 1000 mg/kg, 120 h, dose level High, time 5 day

In the case of `OC[C@@H](O)[C@@H](O)[C@H](O)[C@H](O)CO` [MANNITOL], the “ABSOLUTE BASOPHIL” value [1] is reported as 0 CELLS/uL, the “ABSOLUTE EOSINOPHIL” value [1] is reported as 269 CELLS/uL and the “ABSOLUTE LYMPHOCYTE” value [1] is reported as 11772.67 CELLS/uL. For the same compound, the “ABSOLUTE MONOCYTE” value [1] was 286.33 CELLS/uL, the “ABSOLUTE SEGMENTED NEUTROPHIL” value [1] was 638.67 CELLS/uL and the BASOPHIL [1] was 0%. For the same compound, the EOSINOPHIL [1] was 2%, the “ERYTHROCYTE COUNT” value [1] was 5.91 x10E6/uL and the HEMATOCRIT [1] was 37.23%. The HEMOGLOBIN [1] was 13.83 G/DL, the “LEUKOCYTE COUNT” value [1] was 12.97 x10E3/uL and the LYMPHOCYTE [1] was 90.67%. For the same compound, the “MEAN CORPUSCULAR HEMOGLOBIN” value [1] was 23.43 pg, the “MEAN CORPUSCULAR HEMOGLOBIN CONCENTRATION” value [1] was 37.1 G/DL and the “MEAN CORPUSCULAR VOLUME” value [1] was 62.97 fL. For the same compound, the MONOCYTE [1] was 2.33%, the NEUTROPHIL [1] was 5% and the “NUCLEATED RED BLOOD CELLS” value [1] was 0 /100WBC. For the same compound, the “PLATELET COUNT” value [1] was 1250.33 x10E3/uL, the “ALANINE AMINOTRANSFERASE” value [1] was 48.67 u/L and the ALBUMIN [1] was 4.13 G/DL. For the same compound, the “ALKALINE PHOSPHATASE” value [1] was 350 u/L, the “ASPARTATE AMINOTRANSFERASE” value [1] was 97.33 u/L and the “BLOOD UREA NITROGEN” value [1] was 16.33 mg/dL. For the same compound, the “CARBON DIOXIDE” value [1] was 24.67 mmol/L, the CHLORIDE [1] was 104 MEQ/L and the CHOLESTEROL [1] was 77.67 mg/dL. For the same compound, the “CREATINE PHOSPHOKINASE” value [1] was 393.67 u/L, the CREATININE [1] was 0.2 mg/dL and the GLUCOSE [1] was 160.33 mg/dL. The “LACTATE DEHYDROGENASE” value [1] was 480.67 u/L, the LIPASE [1] was 8.67 u/L and the PHOSPHORUS [1] was 13.8 mg/dL. The POTASSIUM [1] was 6.9 MEQ/L, the SODIUM [1] was 146.1 MEQ/L and the “TOTAL BILIRUBIN” value [1] was 0.2 mg/dL. For the same compound, the “TOTAL PROTEIN” value [1] was 5.93 G/DL, the “URIC ACID” value [1] was 1.7 mg/dL and the “ABSOLUTE BASOPHIL” value [2] was 0 CELLS/uL. The “ABSOLUTE EOSINOPHIL” value [2] was 0 CELLS/uL, the “ABSOLUTE LYMPHOCYTE” value [2] was 12262.33 CELLS/uL and the “ABSOLUTE MONOCYTE” value [2] was 402.33 CELLS/uL. For the same compound, the “ABSOLUTE SEGMENTED NEUTROPHIL” value [2] was 1202 CELLS/uL, the BASOPHIL [2] was 0% and the EOSINOPHIL [2] was 0%. For the same compound, the “ERYTHROCYTE COUNT” value [2] was 5.62 x10E6/uL, the HEMATOCRIT [2] was 34.87% and the HEMOGLOBIN [2] was 12.8 G/DL. For the same compound, the “LEUKOCYTE COUNT” value [2] was 13.87 x10E3/uL, the LYMPHOCYTE [2] was 88.33% and the “MEAN CORPUSCULAR HEMOGLOBIN” value [2] was 22.77 pg. For the same compound, the “MEAN CORPUSCULAR HEMOGLOBIN CONCENTRATION” value [2] was 36.73 G/DL, the “MEAN CORPUSCULAR VOLUME” value [2] was 62 fL and the MONOCYTE [2] was 3%. For the same compound, the NEUTROPHIL [2] was 8.67%, the “NUCLEATED RED BLOOD CELLS” value [2] was 0 /100WBC and the “PLATELET COUNT” value [2] was 1182.33 x10E3/uL. For the same compound, the “ALANINE AMINOTRANSFERASE” value [2] was 73.33 u/L, the ALBUMIN [2] was 4.27 G/DL and the “ALKALINE PHOSPHATASE” value [2] was 396 u/L. For the same compound, the “ASPARTATE AMINOTRANSFERASE” value [2] was 130.33 u/L, the “BLOOD UREA NITROGEN” value [2] was 17.67 mg/dL and the “CARBON DIOXIDE” value [2] was 21.67 mmol/L. The CHLORIDE [2] was 110.67 MEQ/L, the CHOLESTEROL [2] was 83 mg/dL and the “CREATINE PHOSPHOKINASE” value [2] was 1094.67 u/L. For the same compound, the CREATININE [2] was 0.15 mg/dL, the GLUCOSE [2] was 196.33 mg/dL and the “LACTATE DEHYDROGENASE” value [2] was 396.67 u/L. The LIPASE [2] was 9.67 u/L, the PHOSPHORUS [2] was 14.1 mg/dL and the POTASSIUM [2] was 6.09 MEQ/L. For the same compound, the SODIUM [2] was 148.6 MEQ/L, the “TOTAL BILIRUBIN” value [2] was 0.13 mg/dL and the “TOTAL PROTEIN” value [2] was 5.73 G/DL. The “URIC ACID” value [2] was 2.53 mg/dL, the “ABSOLUTE BASOPHIL” value [3] was 0 CELLS/uL and the “ABSOLUTE EOSINOPHIL” value [3] was 168 CELLS/uL. The “ABSOLUTE LYMPHOCYTE” value [3] was 12528 CELLS/uL, the “ABSOLUTE MONOCYTE” value [3] was 421 CELLS/uL and the “ABSOLUTE SEGMENTED NEUTROPHIL” value [3] was 916.33 CELLS/uL. The BASOPHIL [3] was 0%, the EOSINOPHIL [3] was 1.33% and the “ERYTHROCYTE COUNT” value [3] was 5.26 x10E6/uL. The HEMATOCRIT [3] was 34.8%, the HEMOGLOBIN [3] was 13.1 G/DL and the “LEUKOCYTE COUNT” value [3] was 14.03 x10E3/uL. The LYMPHOCYTE [3] was 89%, the “MEAN CORPUSCULAR HEMOGLOBIN” value [3] was 24.9 pg and the “MEAN CORPUSCULAR HEMOGLOBIN CONCENTRATION” value [3] was 37.7 G/DL. The “MEAN CORPUSCULAR VOLUME” value [3] was 66.13 fL, the MONOCYTE [3] was 3% and the NEUTROPHIL [3] was 6.67%. The “NUCLEATED RED BLOOD CELLS” value [3] was 0 /100WBC, the “PLATELET COUNT” value [3] was 1218.33 x10E3/uL and the “ALANINE AMINOTRANSFERASE” value [3] was 45 u/L. For the same compound, the ALBUMIN [3] was 4.1 G/DL, the “ALKALINE PHOSPHATASE” value [3] was 339.33 u/L and the “ASPARTATE AMINOTRANSFERASE” value [3] was 74.33 u/L. For the same compound, the “BLOOD UREA NITROGEN” value [3] was 14.67 mg/dL, the “CARBON DIOXIDE” value [3] was 21.67 mmol/L and the CHLORIDE [3] was 105 MEQ/L. For the same compound, the CHOLESTEROL [3] was 68.33 mg/dL, the “CREATINE PHOSPHOKINASE” value [3] was 402.67 u/L and the CREATININE [3] was 0.13 mg/dL. For the same compound, the GLUCOSE [3] was 181.67 mg/dL, the “LACTATE DEHYDROGENASE” value [3] was 239.67 u/L and the LIPASE [3] was 9.33 u/L. It also gave a PHOSPHORUS [3] of 14.13 mg/dL, a POTASSIUM [3] of 6.11 MEQ/L and an SODIUM [3] of 145 MEQ/L. The “TOTAL BILIRUBIN” value [3] was 0.23 mg/dL, the “TOTAL PROTEIN” value [3] was 5.93 G/DL and the “URIC ACID” value [3] was 1.77 mg/dL. For the same compound, the “ABSOLUTE BASOPHIL” value [4] was 0 CELLS/uL, the “ABSOLUTE EOSINOPHIL” value [4] was 45 CELLS/uL and the “ABSOLUTE LYMPHOCYTE” value [4] was 12203.33 CELLS/uL. For the same compound, the “ABSOLUTE MONOCYTE” value [4] was 139 CELLS/uL, the “ABSOLUTE SEGMENTED NEUTROPHIL” value [4] was 779.33 CELLS/uL and the BASOPHIL [4] was 0%. The EOSINOPHIL [4] was 0.33%, the “ERYTHROCYTE COUNT” value [4] was 5.59 x10E6/uL and the HEMATOCRIT [4] was 35.07%. For the same compound, the HEMOGLOBIN [4] was 13.4 G/DL, the “LEUKOCYTE COUNT” value [4] was 13.17 x10E3/uL and the LYMPHOCYTE [4] was 92.67%. The “MEAN CORPUSCULAR HEMOGLOBIN” value [4] was 23.97 pg, the “MEAN CORPUSCULAR HEMOGLOBIN CONCENTRATION” value [4] was 38.27 G/DL and the “MEAN CORPUSCULAR VOLUME” value [4] was 62.67 fL. The MONOCYTE [4] was 1%, the NEUTROPHIL [4] was 6% and the “NUCLEATED RED BLOOD CELLS” value [4] was 0 /100WBC. For the same compound, the “PLATELET COUNT” value [4] was 1310 x10E3/uL, the “ALANINE AMINOTRANSFERASE” value [4] was 39 u/L and the ALBUMIN [4] was 4.3 G/DL. The “ALKALINE PHOSPHATASE” value [4] was 331.67 u/L, the “ASPARTATE AMINOTRANSFERASE” value [4] was 64.67 u/L and the “BLOOD UREA NITROGEN” value [4] was 17.33 mg/dL. For the same compound, the “CARBON DIOXIDE” value [4] was 25.67 mmol/L, the CHLORIDE [4] was 109.67 MEQ/L and the CHOLESTEROL [4] was 67.67 mg/dL. The “CREATINE PHOSPHOKINASE” value [4] was 165.33 u/L, the CREATININE [4] was 0.19 mg/dL and the GLUCOSE [4] was 172.33 mg/dL. The “LACTATE DEHYDROGENASE” value [4] was 106.33 u/L, the LIPASE [4] was 8.67 u/L and the PHOSPHORUS [4] was 12.67 mg/dL. For the same compound, the POTASSIUM [4] was 6.4 MEQ/L, the SODIUM [4] was 148.93 MEQ/L and the “TOTAL BILIRUBIN” value [4] was 0.2 mg/dL. The “TOTAL PROTEIN” value [4] was 6.3 G/DL and the “URIC ACID” value [4] was 1.67 mg/dL.
